According to the NIST ThermoML archive (doi:10.1016/j.fluid.2014.11.020):
Numbers after ± are expanded uncertainties.

Test: activity coefficient (dimensionless); of the first substance listed, at infinite dilution; xn = mol fraction of the nth substance listed
Details: Liquid, Chromatography, x1 = 0

SMILES | activity coefficient (323.15 K) | activity coefficient (333.15 K) | activity coefficient (343.15 K)
CC(C)OC(C)C [diisopropyl ether] + CCCCCCCCn1cc[n+](COCCCOC[n+]2ccn(CCCCCCCC)c2C)c1C.O=S(=O)([N-]S(=O)(=O)C(F)(F)F)C(F)(F)F.O=S(=O)([N-]S(=O)(=O)C(F)(F)F)C(F)(F)F | 1.54 ± 0.1 | 1.56 ± 0.1 | 1.54 ± 0.1
CC(C)OC(C)C [diisopropyl ether] + CCCOC[n+]1ccc(N(C)C)cc1.O=S(=O)([N-]S(=O)(=O)C(F)(F)F)C(F)(F)F | 4.49 ± 0.31 | 4.54 ± 0.31 | 4.12 ± 0.28
CC(C)OC(C)C [diisopropyl ether] + CCCOC[n+]1ccn(C)c1.F[B-](F)(F)F | 32.7 ± 2.2 | 28.5 ± 1.9 | 26.4 ± 1.8
CC(C)OC(C)C [diisopropyl ether] + CCCOC[n+]1ccn(C)c1.O=S(=O)([N-]S(=O)(=O)C(F)(F)F)C(F)(F)F | 4.69 ± 0.32 | 4.82 ± 0.33 | 4.46 ± 0.3
CC(C)OC(C)C [diisopropyl ether] + CCCOC[n+]1ccn(Cc2ccccc2)c1.F[B-](F)(F)F | 17.6 ± 1.2 | 14.8 ± 1 | –
CC(C)OC(C)C [diisopropyl ether] + CCCOC[n+]1ccn(Cc2ccccc2)c1.N#C[N-]C#N | 12.8 ± 0.87 | 12.1 ± 0.83 | 12 ± 0.82
CC(C)OC(C)C [diisopropyl ether] + CCCOC[n+]1ccn(Cc2ccccc2)c1.O=S(=O)([N-]S(=O)(=O)C(F)(F)F)C(F)(F)F | 3 ± 0.2 | 2.87 ± 0.2 | 2.74 ± 0.19
CC(C)OC(C)C [diisopropyl ether] + CN(C)c1cc[n+](COCCCOC[n+]2ccc(N(C)C)cc2)cc1.O=S(=O)([N-]S(=O)(=O)C(F)(F)F)C(F)(F)F.O=S(=O)([N-]S(=O)(=O)C(F)(F)F)C(F)(F)F | 5.9 ± 0.4 | 5.72 ± 0.39 | 5.65 ± 0.39
CC(C)OC(C)C [diisopropyl ether] + Cn1cc[n+](COCCCOC[n+]2ccn(C)c2)c1.O=S(=O)([N-]S(=O)(=O)C(F)(F)F)C(F)(F)F.O=S(=O)([N-]S(=O)(=O)C(F)(F)F)C(F)(F)F | 6.31 ± 0.43 | 6.51 ± 0.44 | 5.54 ± 0.38
CCCCCCCCCCCC [dodecane] + CCCCCCCCn1cc[n+](COCCCOC[n+]2ccn(CCCCCCCC)c2C)c1C.N#C[N-]C#N.N#C[N-]C#N | 28.7 ± 2 | 30.6 ± 2.1 | 27.9 ± 1.9
CCCCCCCCCCCC [dodecane] + CCCCCCCCn1cc[n+](COCCCOC[n+]2ccn(CCCCCCCC)c2C)c1C.O=S(=O)([N-]S(=O)(=O)C(F)(F)F)C(F)(F)F.O=S(=O)([N-]S(=O)(=O)C(F)(F)F)C(F)(F)F | 15.4 ± 1.1 | 13.9 ± 0.95 | 13.1 ± 0.89
CCCCCCCCCCCC [dodecane] + CCCOC[n+]1ccc(N(C)C)cc1.O=S(=O)([N-]S(=O)(=O)C(F)(F)F)C(F)(F)F | 73.5 ± 5 | 69.4 ± 4.8 | 61.7 ± 4.2
CCCCCCCCCCCC [dodecane] + CCCOC[n+]1ccn(C)c1.F[B-](F)(F)F | 1160 ± 80 | 1160 ± 80 | 1150 ± 79
CCCCCCCCCCCC [dodecane] + CCCOC[n+]1ccn(C)c1.N#C[N-]C#N | 802 ± 55 | 716 ± 49 | 639 ± 44
CCCCCCCCCCCC [dodecane] + CCCOC[n+]1ccn(C)c1.O=S(=O)([N-]S(=O)(=O)C(F)(F)F)C(F)(F)F | 132 ± 9.1 | 118 ± 8.1 | 105 ± 7.2
CCCCCCCCCCCC [dodecane] + CCCOC[n+]1ccn(Cc2ccccc2)c1.F[B-](F)(F)F | 483 ± 33 | 421 ± 29 | 370 ± 25
CCCCCCCCCCCC [dodecane] + CN(C)c1cc[n+](COCCCOC[n+]2ccc(N(C)C)cc2)cc1.O=S(=O)([N-]S(=O)(=O)C(F)(F)F)C(F)(F)F.O=S(=O)([N-]S(=O)(=O)C(F)(F)F)C(F)(F)F | 156 ± 11 | 137 ± 9.4 | 124 ± 8.5
CCCCCCCCCCCC [dodecane] + Cn1cc[n+](COCCCOC[n+]2ccn(C)c2)c1.N#C[N-]C#N.N#C[N-]C#N | 1150 ± 79 | 962 ± 66 | 932 ± 64
CCCCCCCCCCCC [dodecane] + N#C[N-]C#N.N#C[N-]C#N.c1ccc(Cn2cc[n+](COCCCOC[n+]3ccn(Cc4ccccc4)c3)c2)cc1 | 631 ± 43 | 634 ± 44 | 600 ± 41
CCO [ethanol] + CCCCCCCCn1cc[n+](COCCC)c1C.N#C[N-]C#N | 0.39 ± 0.03 | 0.38 ± 0.03 | 0.38 ± 0.03
CCO [ethanol] + CCCCCCCCn1cc[n+](COCCC)c1C.O=S(=O)([N-]S(=O)(=O)C(F)(F)F)C(F)(F)F | 1.12 ± 0.07 | 1.02 ± 0.06 | 0.94 ± 0.06
CCO [ethanol] + CCCCCCCCn1cc[n+](COCCCOC[n+]2ccn(CCCCCCCC)c2C)c1C.N#C[N-]C#N.N#C[N-]C#N | 0.3 ± 0.03 | 0.29 ± 0.03 | 0.29 ± 0.03

SMILES | activity coefficient (323.15 K) | activity coefficient (333.15 K) | activity coefficient (343.15 K)
CCO [ethanol] + CCCCCCCCn1cc[n+](COCCCOC[n+]2ccn(CCCCCCCC)c2C)c1C.O=S(=O)([N-]S(=O)(=O)C(F)(F)F)C(F)(F)F.O=S(=O)([N-]S(=O)(=O)C(F)(F)F)C(F)(F)F | 0.64 ± 0.04 | 0.58 ± 0.04 | 0.55 ± 0.04
CCO [ethanol] + CCCOC[n+]1ccc(N(C)C)cc1.O=S(=O)([N-]S(=O)(=O)C(F)(F)F)C(F)(F)F | 1.57 ± 0.1 | 1.47 ± 0.1 | 1.4 ± 0.09
CCO [ethanol] + CCCOC[n+]1ccn(C)c1.F[B-](F)(F)F | 2.1 ± 0.14 | 1.9 ± 0.13 | 1.75 ± 0.12
CCO [ethanol] + CCCOC[n+]1ccn(C)c1.N#C[N-]C#N | 0.74 ± 0.05 | 0.73 ± 0.05 | 0.71 ± 0.05
CCO [ethanol] + CCCOC[n+]1ccn(C)c1.O=S(=O)([N-]S(=O)(=O)C(F)(F)F)C(F)(F)F | 1.51 ± 0.1 | 1.36 ± 0.09 | 1.26 ± 0.08
CCO [ethanol] + CCCOC[n+]1ccn(Cc2ccccc2)c1.F[B-](F)(F)F | 1.65 ± 0.11 | 1.49 ± 0.1 | 1.38 ± 0.09
CCO [ethanol] + CCCOC[n+]1ccn(Cc2ccccc2)c1.N#C[N-]C#N | 0.73 ± 0.05 | 0.6 ± 0.04 | 0.59 ± 0.04
CCO [ethanol] + CN(C)c1cc[n+](COCCCOC[n+]2ccc(N(C)C)cc2)cc1.O=S(=O)([N-]S(=O)(=O)C(F)(F)F)C(F)(F)F.O=S(=O)([N-]S(=O)(=O)C(F)(F)F)C(F)(F)F | 1.21 ± 0.08 | 1.11 ± 0.07 | 1.02 ± 0.06
CCO [ethanol] + Cn1cc[n+](COCCCOC[n+]2ccn(C)c2)c1.N#C[N-]C#N.N#C[N-]C#N | 0.78 ± 0.05 | 0.76 ± 0.05 | 0.72 ± 0.05
CCO [ethanol] + Cn1cc[n+](COCCCOC[n+]2ccn(C)c2)c1.O=S(=O)([N-]S(=O)(=O)C(F)(F)F)C(F)(F)F.O=S(=O)([N-]S(=O)(=O)C(F)(F)F)C(F)(F)F | 1.06 ± 0.07 | 0.96 ± 0.06 | 0.89 ± 0.06
CCO [ethanol] + N#C[N-]C#N.N#C[N-]C#N.c1ccc(Cn2cc[n+](COCCCOC[n+]3ccn(Cc4ccccc4)c3)c2)cc1 | 0.94 ± 0.06 | 0.89 ± 0.06 | 0.86 ± 0.06
CCc1ccccc1 [ethylbenzene] + CCCCCCCCn1cc[n+](COCCC)c1C.N#C[N-]C#N | 1.48 ± 0.1 | 1.5 ± 0.1 | 1.54 ± 0.1
CCc1ccccc1 [ethylbenzene] + CCCCCCCCn1cc[n+](COCCC)c1C.O=S(=O)([N-]S(=O)(=O)C(F)(F)F)C(F)(F)F | 1.01 ± 0.06 | 1.03 ± 0.06 | 1.04 ± 0.07
CCc1ccccc1 [ethylbenzene] + CCCCCCCCn1cc[n+](COCCCOC[n+]2ccn(CCCCCCCC)c2C)c1C.N#C[N-]C#N.N#C[N-]C#N | 1.32 ± 0.09 | 1.34 ± 0.09 | 1.36 ± 0.09
CCc1ccccc1 [ethylbenzene] + CCCCCCCCn1cc[n+](COCCCOC[n+]2ccn(CCCCCCCC)c2C)c1C.O=S(=O)([N-]S(=O)(=O)C(F)(F)F)C(F)(F)F.O=S(=O)([N-]S(=O)(=O)C(F)(F)F)C(F)(F)F | 0.75 ± 0.05 | 0.73 ± 0.05 | 0.74 ± 0.05
CCc1ccccc1 [ethylbenzene] + CCCOC[n+]1ccc(N(C)C)cc1.O=S(=O)([N-]S(=O)(=O)C(F)(F)F)C(F)(F)F | 1.45 ± 0.1 | 1.53 ± 0.1 | 1.53 ± 0.1
CCc1ccccc1 [ethylbenzene] + CCCOC[n+]1ccn(C)c1.F[B-](F)(F)F | 11 ± 0.75 | 10.8 ± 0.74 | 10.7 ± 0.73
CCc1ccccc1 [ethylbenzene] + CCCOC[n+]1ccn(C)c1.N#C[N-]C#N | 6 ± 0.41 | 6.06 ± 0.41 | 6.12 ± 0.42
CCc1ccccc1 [ethylbenzene] + CCCOC[n+]1ccn(C)c1.O=S(=O)([N-]S(=O)(=O)C(F)(F)F)C(F)(F)F | 2.55 ± 0.17 | 2.51 ± 0.17 | 2.51 ± 0.17
CCc1ccccc1 [ethylbenzene] + CCCOC[n+]1ccn(Cc2ccccc2)c1.F[B-](F)(F)F | 4.89 ± 0.33 | 4.71 ± 0.32 | 4.73 ± 0.32
CCc1ccccc1 [ethylbenzene] + CCCOC[n+]1ccn(Cc2ccccc2)c1.N#C[N-]C#N | 3.41 ± 0.23 | 3.36 ± 0.23 | 3.32 ± 0.23
CCc1ccccc1 [ethylbenzene] + CCCOC[n+]1ccn(Cc2ccccc2)c1.O=S(=O)([N-]S(=O)(=O)C(F)(F)F)C(F)(F)F | 1.5 ± 0.1 | 1.33 ± 0.09 | 1.32 ± 0.09
